Laboratory results: PubChem BioAssay AID1963450 (Molecular Pharmacology Branch, DTP, NCI, 2024)

Test system: 556581-035-R-J1-PDC complex spheroid growth
Test: Anticancer human tumor 556581-035-R-J1-PDC patient-derived ovarian carcinoma cell line growth inhibition [Asc]
Conditions: for IC50: curve of first compound; for viability, T/C: stronger effect = lower value
Method in brief: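 Tumor cells were grown as complex spheroids with human endothelial cells (HUVEC) and human mesenchymal stem cells as stroma. Agents were tested alone and in combination, in half-log steps down from the clinical Cmax, or from 10 microM where Cmax was unknown.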

[1] = second compound 0.03 µM, first compound 0.0316 µM
[2] = second compound 0.03 µM, first compound 0.1 µM
[3] = second compound 0.03 µM, first compound 0.316 µM
[4] = second compound 0.03 µM, first compound 1 µM
[5] = second compound 0.0949 µM, first compound 0.0316 µM
[6] = second compound 0.0949 µM, first compound 0.1 µM
[7] = second compound 0.0949 µM, first compound 0.316 µM
[8] = second compound 0.0949 µM, first compound 1 µM
[9] = second compound 0.3 µM, first compound 0.0316 µM
[10] = second compound 0.3 µM, first compound 0.1 µM
[11] = second compound 0.3 µM, first compound 0.316 µM
[12] = second compound 0.3 µM, first compound 1 µM
[13] = second compound 0.949 µM, first compound 0.0316 µM
[14] = second compound 0.949 µM, first compound 0.1 µM
[15] = second compound 0.949 µM, first compound 0.316 µM
[16] = second compound 0.949 µM, first compound 1 µM
[17] = second compound 3 µM, first compound 0.0316 µM
[18] = second compound 3 µM, first compound 0.1 µM
[19] = second compound 3 µM, first compound 0.316 µM
[20] = second compound 3 µM, first compound 1 µM
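Further: spheroids exposed to agents for 7 days before viability read.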

## C=CC(=O)N1CCN(c2nc(=O)n(-c3c(C)ccnc3C(C)C)c3nc(-c4c(O)cccc4F)c(F)cc23)C(C)C1 (stereo not given) + CCN1C(C(=O)NC23CCC(C(=O)O)(CC2)CC3)C(c2cccc(Cl)c2F)C2(C(=O)Nc3cc(Cl)ccc32)C12CCCCC2
Second compound 0.03 µM
  IC50: > 10 µM
Second compound 0.0949 µM
  IC50: > 10 µM
Second compound 0.3 µM
  IC50: > 10 µM
Second compound 0.949 µM
  IC50: > 10 µM
Second compound 3 µM
  IC50: > 10 µM
[1]
  viability, T/C: 96.1%
[2]
  viability, T/C: 98.7%
[3]
  viability, T/C: 95.1%
[4]
  viability, T/C: 102%
Second compound 0.03 µM, first compound 3.16 µM
  viability, T/C: 94.3%
Second compound 0.03 µM, first compound 10 µM
  viability, T/C: 94.4%
[5]
  viability, T/C: 102%
[6]
  viability, T/C: 99.1%
[7]
  viability, T/C: 104%
[8]
  viability, T/C: 88%
Second compound 0.0949 µM, first compound 3.16 µM
  viability, T/C: 117%
Second compound 0.0949 µM, first compound 10 µM
  viability, T/C: 99.4%
[9]
  viability, T/C: 102%
[10]
  viability, T/C: 103%
[11]
  viability, T/C: 101%
[12]
  viability, T/C: 86.6%
Second compound 0.3 µM, first compound 3.16 µM
  viability, T/C: 116%
Second compound 0.3 µM, first compound 10 µM
  viability, T/C: 103%
[13]
  viability, T/C: 113%
[14]
  viability, T/C: 95.6%
[15]
  viability, T/C: 119%
[16]
  viability, T/C: 115%
Second compound 0.949 µM, first compound 3.16 µM
  viability, T/C: 109%
Second compound 0.949 µM, first compound 10 µM
  viability, T/C: 103%
[17]
  viability, T/C: 93.2%
[18]
  viability, T/C: 87.5%
[19]
  viability, T/C: 96%
[20]
  viability, T/C: 96.5%
Second compound 3 µM, first compound 3.16 µM
  viability, T/C: 103%
Second compound 3 µM, first compound 10 µM
  viability, T/C: 84.8%

## CNC(C)C(=O)NC1CN(S(=O)(=O)c2cccc(S(=O)(=O)N3CCC4CCC(C(=O)NC(c5ccccc5)c5ccccc5)N4C(=O)C(NC(=O)C(C)NC)C3)c2)CCC2CCC(C(=O)NC(c3ccccc3)c3ccccc3)N2C1=O (stereo not given) + CCN1C(C(=O)NC23CCC(C(=O)O)(CC2)CC3)C(c2cccc(Cl)c2F)C2(C(=O)Nc3cc(Cl)ccc32)C12CCCCC2
Second compound 0.03 µM
  IC50: > 1 µM
Second compound 0.0949 µM
  IC50: > 1 µM
Second compound 0.3 µM
  IC50: > 1 µM
Second compound 0.949 µM
  IC50: > 1 µM
Second compound 3 µM
  IC50: > 1 µM
Second compound 0.03 µM, first compound 0.00316 µM
  viability, T/C: 94.8%
Second compound 0.03 µM, first compound 0.01 µM
  viability, T/C: 82.8%
[1]
  viability, T/C: 97.9%
[2]
  viability, T/C: 76.4%
[3]
  viability, T/C: 61.8%
[4]
  viability, T/C: 54.3%
Second compound 0.0949 µM, first compound 0.00316 µM
  viability, T/C: 88.3%
Second compound 0.0949 µM, first compound 0.01 µM
  viability, T/C: 98.8%
[5]
  viability, T/C: 87%
[6]
  viability, T/C: 76.8%
[7]
  viability, T/C: 65.6%
[8]
  viability, T/C: 60.5%
Second compound 0.3 µM, first compound 0.00316 µM
  viability, T/C: 108%
Second compound 0.3 µM, first compound 0.01 µM
  viability, T/C: 97.5%
[9]
  viability, T/C: 106%
[10]
  viability, T/C: 77.3%
[11]
  viability, T/C: 73%
[12]
  viability, T/C: 57.1%
Second compound 0.949 µM, first compound 0.00316 µM
  viability, T/C: 85.5%
Second compound 0.949 µM, first compound 0.01 µM
  viability, T/C: 81.2%
[13]
  viability, T/C: 93.9%
[14]
  viability, T/C: 66.8%
[15]
  viability, T/C: 65.1%
[16]
  viability, T/C: 65.5%
Second compound 3 µM, first compound 0.00316 µM
  viability, T/C: 105%
Second compound 3 µM, first compound 0.01 µM
  viability, T/C: 94.6%
[17]
  viability, T/C: 78.7%
[18]
  viability, T/C: 70.8%
[19]
  viability, T/C: 63.3%
[20]
  viability, T/C: 60.5%
